Values joined by “and” are separate entries in the source; they are usually repeats but may differ in a detail not shown here. Equal entries are not always repeated.
Assays:
[1] = test system: trypsin; assay: Continuous assay for trypsin (saturation kinetics), color development by DMAB/ferricyanide at 590 nm; assay type: biochemical; conditions: 1 μg trypsin, 0.14M Tris pH 7.8, substrate 1.74×10^-3, 5.8×10^-4 and 3.9×10^-4 M in triplicate
Text: (§1) The invention may be more thoroughly understood by reference to the included examples which describe the synthesis of amides of the type RCO-MBTH (Examples 1-15) and a continuous enzyme assay (Example 16). A disconintuous assay is illustrated in Example 17. Example 18 is a determination of the kinetic catalytic constant (kc) and binding constant (Km) for trypsin-catalyzed hydrolysis of an RCO-MBTH substrate by the continuous assay method.
Saturation kinetics for N-(N-benzyloxycarbonyl)glycyl-L-prolyl-L-arginyl 3-methyl-2-benzothiazolinone hydrazone with trypsin
A continuous assay for trypsin was performed, i.e., the oxidizing and coupling reagents for color development were included with the substrate in the reaction mixture so that color development may be monitored on a continuous basis with time. In this example the dye precursor is developed to a dye without destroying the enzymatic activity of the enzyme. The reaction was initiated by the addition of 0.1 mL of enzyme (10 μg/mL) to 0.9 mL of buffer solution containing substrate (Z-GLY-PRO-ARG-MBTH) and color developing reagents. […] The increases in absorbance at 590 nm were monitored continuously for 5 minutes and the initial rates determined. Using the molar absorptivity of 57,000 for the chromogen produced (MBTH-DMAB), the average rate of hydrolysis was calculated to be 4.43+0.1×10^-6 mol min^-1.

[2] = test system: trypsin; assay: Determination of kinetic constants for the trypsin catalyzed hydrolysis (continuous assay); assay type: biochemical; conditions: triplicate
Text: as §1
Determination of the Kinetic Constants for the Trypsin Catalyzed Hydrolysis of N-(N-t-butoxycarbonyl)-L-Arginyl 3-methyl benzothiazolinone hydrazone (continuous assay)
In a one-cm. cuvette were mixed 3.0 mL of 0.02M tris buffer, pH 7.8, containing 0.02M 3-dimethylamino benzoic acid (DMAB) 0.1 mL of 0.065M potassium ferricyanide, and 0.1 mL of substrate (Boc-ARG-MBTH). The reaction was initiated by the addition of 0.1 mL of trypsin (2.33×10^-4 M in 0.1M pyrophosphate buffer, pH 8.3). Eight concentrations of substrate, from 9.98×10^-4 M to 7.8×10^-6 M, were assayed in triplicate. The increase in absorption at 590 nm was monitored continuously and the initial rates were determined. Under the conditions of the assay, a molar absorptivity of 57,000 was used to determine the concentration of the chromogen (MBTH-DMAB) produced by the hydrolysis of substrate. Table I contains the date used to determine the binding and kinetic constants (Km, kc).

Row | Structure (SMILES) | average rate of hydrolysis [1] | 1/V ([2]; 1/s 100 M^-1) | 1/V ([2]; 1/s 200 M^-1) | 1/V ([2]; 1/s 401 M^-1) | 1/V ([2]; 1/s 802 M^-1) | 1/V ([2]; 1/s 1603 M^-1) | 1/V ([2]; 1/s 2305 M^-1) | 1/V ([2]; 1/s 6413 M^-1) | 1/V ([2]; 1/s 12826 M^-1)
1 | Cn1c(=NNC(=O)[C@H](CCCNC(=N)N)NC(=O)[C@@H]2CCCN2C(=O)CNC(=O)OCc2ccccc2)sc2ccccc21 [Z-GLY-PRO-ARG-MBTH, N-(N-benzyloxycarbonyl)glycyl-L-prolyl-L-arginyl 3-methyl-2-benzothiazolinone hydrazone] | 4.43+0.1×10^-6 mol min^-1 |  |  |  |  |  |  |  | 
2 | Cn1c(=NNC(=O)[C@H](CCCNC(=N)N)NC(=O)OC(C)(C)C)sc2ccccc21 [Boc-ARG-MBTH, N-(N-t-butoxycarbonyl)-L-Arginyl 3-methyl benzothiazolinone hydrazone] |  | 0.000565 min/M and 0.000528 min/M and 0.000625 min/M | 0.000699 min/M and 0.000742 min/M | 0.000766 min/M and 0.00088 min/M and 0.000819 min/M | 0.001033 min/M and 0.00108 min/M and 0.001188 min/M | 0.001697 min/M and 0.001827 min/M | 0.002969 min/M and 0.003393 min/M | 0.005056 min/M and 0.00528 min/M | 0.009901 min/M and 0.009506 min/M

— patent publication US5220029A, “Synthetic proteolytic substrate” (Vitek Systems, Inc., priority 1990, dated 1993)
